The supplement of paper PMC8960247
Structures can show the parent of a compound that is named as a salt. ± gives the standard error.

These compounds were tested on 621-103 (TSC2-rescued) (assay: relative viability vs DMSO; higher = less cytotoxic). Conditions: 0.001 µM; serum: 10% FBS; 72 h.
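Also: immortalized renal angiomyolipoma cells stably carrying empty vector or TSC2, dosed in 384-well plates in DMEM, viability normalized to vehicle-treated wells within each plate.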

SMILES	relative viability
NC1(c2ccc(-c3nc4ccn5c(=O)[nH]nc5c4cc3-c3ccccc3)cc2)CCC1 [MK-2206]	81.98 ± 0.32%
S=C(NCc1ccc2c(c1)OCO2)N1CCN(c2ncnc3c2oc2ccccc23)CC1 [MP-470]	104 ± 1.4%
Nc1ccccc1NC(=O)c1ccc(CNC(=O)OCc2cccnc2)cc1 [MS-275]	99.4 ± 1.4%
COC(=O)C1=C(C)NC(C)=C(C(=O)OCCN2CCN(C(c3ccccc3)c3ccccc3)CC2)C1c1cccc([N+](=O)[O-])c1 (configuration not stated) [Manidipine HCl (CV-4093)]	90 ± 1.3%
COC(=O)C1=C(C)NC(C)=C(C(=O)OCCN2CCN(C(c3ccccc3)c3ccccc3)CC2)C1c1cccc([N+](=O)[O-])c1 (configuration not stated) [Manidipine]	108 ± 2.9%
CNCCCC12CCC(c3ccccc31)c1ccccc12 [Maprotiline HCl]	102 ± 1.2%
Cc1nnc(C(C)C)n1[C@H]1C[C@H]2CC[C@@H](C1)N2CC[C@H](NC(=O)C1CCC(F)(F)CC1)c1ccccc1 [Maraviroc (Selzentry)]	101 ± 2.7%
Cc1ccc(NC(=O)c2ccc(CN3CCN(C)CC3)cc2)cc1Nc1nc(-c2cccnc2)cs1 [Masitinib (AB1010)]	105 ± 1.6%
Cc1[nH]c(=O)c(C#N)cc1-c1ccncc1 [Milrinone (Primacor)]	91.11 ± 0.53%
O=C1c2c(O)ccc(O)c2C(=O)c2c(NCCNCCO)ccc(NCCNCCO)c21 [Mitoxantrone]	87.32 ± 0.1%
NC(=O)c1ncn([C@@H]2O[C@H](CO)[C@@H](O)[C@H]2O)c1O [Mizoribine]	99.8 ± 2%
N=C(N)NC(=N)N1CCOCC1 [Moroxydine]	86.9 ± 5.6%
CC1(C)CNc2cc(NC(=O)c3cccnc3NCc3ccncc3)ccc21 [Motesanib DiPhosphate]	102.6 ± 0.75%
FC(F)(F)c1ccc(/C=C/c2nc(COc3ccc(CCCCn4ccnn4)cc3)co2)cc1 [Mubritinib (TAK 165)]	106 ± 2%
CC(C)(C)c1[nH]cnc1/C=c1\[nH]c(=O)/c(=C/c2ccccc2)[nH]c1=O [NPI-2358]	45.4 ± 0.88%
CC(C)(Cc1ccc2ccccc2c1)NC[C@@H](O)COc1cccc(Cl)c1C#N [NPS-2143]	102 ± 2.2%
CCNC(=O)c1noc(-c2cc(C(C)C)c(O)cc2O)c1-c1ccc(CN2CCOCC2)cc1 [NVP-AUY922]	6.795 ± 0.067%
CCNC(=O)c1cc2c(-c3cc(OCCN4CCCC4)c(Cl)cc3Cl)nc(N)nc2s1 [NVP-BEP800]	99.72 ± 0.67%
Fc1cc(-c2cccc3ncc(-c4cnn(C5CCNCC5)c4)nc23)cc(F)c1CN1CCOCC1 [NVP-BSK805 dihydrochloride]	102 ± 1.9%

Same assay, conditions: 0.01 µM; serum: 10% FBS; 72 h

SMILES	relative viability
CCC(C)n1ncn(-c2ccc(N3CCN(c4ccc(OCC5COC(Cn6cncn6)(c6ccc(Cl)cc6Cl)O5)cc4)CC3)cc2)c1=O (configuration not stated) [Itraconazole (Sporanox)]	95.59 ± 0.8%
CCCNC(=O)Nc1ccc(Oc2ncnc3cc(OC)c(OC)cc23)cc1Cl [KRN 633]	100 ± 3%
O=C(c1ccc(/C=C/c2n[nH]c3ccccc23)cc1)N1CCNCC1 [KW 2449]	101.8 ± 0.59%
O=C(c1ccc(F)cc1)C1CCN(CCn2c(=O)[nH]c3ccccc3c2=O)CC1 [Ketanserin (Vulketan Gel)]	102.89 ± 0.072%
O=C(c1ccccc1)c1ccc2n1CCC2C(=O)O (configuration not stated) [Ketorolac]	128 ± 4%
CCCCCCCCCCCCCCCC(=O)OC[C@H](O)[C@H]1OC(=O)C(O)=C1O [L-Ascorbyl 6-palmitate]	96.5 ± 3.2%
Cc1[nH]c2ccccc2c1CCNCc1ccc(/C=C/C(=O)NO)cc1 [LBH-589 (Panobinostat)]	52.19 ± 0.31%
Cc1c(C(=O)Nc2ccc(N3C[C@@H](C)O[C@@H](C)C3)nc2)cccc1-c1ccc(OC(F)(F)F)cc1 [LDE225]	112 ± 2.8%
CS(=O)(=O)CCNCc1ccc(-c2ccc3ncnc(Nc4ccc(OCc5cccc(F)c5)c(Cl)c4)c3c2)o1 [Lapatinib Ditosylate]	104 ± 1.5%
Nc1cccc2c1CN(C1CCC(=O)NC1=O)C2=O (configuration not stated) [Lenalidomide]	100 ± 1.1%
N#Cc1ccc(C(c2ccc(C#N)cc2)n2cncn2)cc1 [Letrozole]	103.5 ± 0.86%
CC(=O)NC[C@H]1CN(c2ccc(N3CCOCC3)c(F)c2)C(=O)O1 [Linezolid]	98.2 ± 2.4%
CN(C)C(=O)C(CCN1CCC(O)(c2ccc(Cl)cc2)CC1)(c1ccccc1)c1ccccc1 [Loperamide HCl]	97.2 ± 1.4%
O=c1cc(-c2ccc(O)c(O)c2)oc2cc(O)cc(O)c12 [Luteolin (Luteolol)]	102 ± 1.6%
Cn1cc(/C=C/C(=O)c2cccc(F)c2)cc1/C=C/C(=O)NO [MC1568]	99.34 ± 0.99%
CC(C)C[C@@H](C=O)NC(=O)[C@H](CC(C)C)NC(=O)[C@H](CC(C)C)NC(=O)OCc1ccccc1 [MG-132]	95.3 ± 4.2%
Nc1ccccc1NC(=O)c1ccc(CNc2nccc(-c3cccnc3)n2)cc1 [MGCD0103 (Mocetinostat)]	105.6 ± 0.9%
O=C(CN1C(=O)C2(CCCC2)NC[C@H]1c1cc(F)cc(F)c1)Nc1ccc2c(c1)C[C@@]1(C2)C(=O)Nc2ncccc21 [MK 3207 hydrochloride]	101.4 ± 0.9%
O=C(O)CC[C@H]1CC[C@@](c2cc(F)ccc2F)(S(=O)(=O)c2ccc(Cl)cc2)CC1 [MK-0752]	107 ± 1.9%

SMILES	relative viability
NC1(c2ccc(-c3nc4ccn5c(=O)[nH]nc5c4cc3-c3ccccc3)cc2)CCC1 [MK-2206]	79.4 ± 1.1%
S=C(NCc1ccc2c(c1)OCO2)N1CCN(c2ncnc3c2oc2ccccc23)CC1 [MP-470]	103.8 ± 0.57%
Nc1ccccc1NC(=O)c1ccc(CNC(=O)OCc2cccnc2)cc1 [MS-275]	98.42 ± 0.37%
COC(=O)C1=C(C)NC(C)=C(C(=O)OCCN2CCN(C(c3ccccc3)c3ccccc3)CC2)C1c1cccc([N+](=O)[O-])c1 (configuration not stated) [Manidipine HCl (CV-4093)]	98 ± 1.7%
COC(=O)C1=C(C)NC(C)=C(C(=O)OCCN2CCN(C(c3ccccc3)c3ccccc3)CC2)C1c1cccc([N+](=O)[O-])c1 (configuration not stated) [Manidipine]	106 ± 2%
CNCCCC12CCC(c3ccccc31)c1ccccc12 [Maprotiline HCl]	99.43 ± 0.5%
Cc1nnc(C(C)C)n1[C@H]1C[C@H]2CC[C@@H](C1)N2CC[C@H](NC(=O)C1CCC(F)(F)CC1)c1ccccc1 [Maraviroc (Selzentry)]	99.264 ± 0.066%
Cc1ccc(NC(=O)c2ccc(CN3CCN(C)CC3)cc2)cc1Nc1nc(-c2cccnc2)cs1 [Masitinib (AB1010)]	107.1 ± 0.95%
Cc1[nH]c(=O)c(C#N)cc1-c1ccncc1 [Milrinone (Primacor)]	95.5 ± 9.2%
O=C1c2c(O)ccc(O)c2C(=O)c2c(NCCNCCO)ccc(NCCNCCO)c21 [Mitoxantrone]	90.41 ± 0.1%
NC(=O)c1ncn([C@@H]2O[C@H](CO)[C@@H](O)[C@H]2O)c1O [Mizoribine]	99.1 ± 2.2%
N=C(N)NC(=N)N1CCOCC1 [Moroxydine]	96.1 ± 4.8%
CC1(C)CNc2cc(NC(=O)c3cccnc3NCc3ccncc3)ccc21 [Motesanib DiPhosphate]	102.5 ± 0.75%
FC(F)(F)c1ccc(/C=C/c2nc(COc3ccc(CCCCn4ccnn4)cc3)co2)cc1 [Mubritinib (TAK 165)]	104 ± 2.1%
CC(C)(C)c1[nH]cnc1/C=c1\[nH]c(=O)/c(=C/c2ccccc2)[nH]c1=O [NPI-2358]	62 ± 1.6%
CC(C)(Cc1ccc2ccccc2c1)NC[C@@H](O)COc1cccc(Cl)c1C#N [NPS-2143]	107 ± 1.8%
CCNC(=O)c1noc(-c2cc(C(C)C)c(O)cc2O)c1-c1ccc(CN2CCOCC2)cc1 [NVP-AUY922]	6.22 ± 0.57%
CCNC(=O)c1cc2c(-c3cc(OCCN4CCCC4)c(Cl)cc3Cl)nc(N)nc2s1 [NVP-BEP800]	99.48 ± 0.53%
Fc1cc(-c2cccc3ncc(-c4cnn(C5CCNCC5)c4)nc23)cc(F)c1CN1CCOCC1 [NVP-BSK805 dihydrochloride]	111 ± 4.3%
